How the values were obtained:
[1] = tested on: morphine-induced respiratory depression; test: Effects of morphine and compound on arterial blood gases in the rat; format: in vivo; conditions: for PaCO2 (% reversal) / PaO2 (% reversal) / SaO2 (% reversal) / pH (% reversal): morphine 10 mg/kg
Protocol: Rats with pre-cannulated jugular vein and femoral arterial catheters (for administering drugs and obtaining blood samples respectively) were obtained from Harlan laboratories and kept at the animal facility at Galleon Pharmaceuticals until the experimental procedures. Each animal was dosed with morphine sulfate (10 mg/kg), dissolved in saline at a concentration of 10 mg/mL, via injection into the jugular vein over a period of 20 seconds with a 20 second flush of 0.9% NaCl saline. Prior to morphine administration, two 250 μL samples of arterial blood were aspirated from the femoral artery into a pre-heparinized syringe. The samples were analyzed on Radiometer's ABL Flex 800, where pO2, pCO2, pH, SaO2 and other parameters were recorded. Aspirated volumes of arterial blood were replaced by room temperature sterile saline (˜300 μL) slowly flushed back into the femoral arterial catheter of the rodent to prevent hypovolemia. Morphine was then administered and 2 minutes later another blood sample was taken.
The infusion started at t=15 minutes and ended at t=35 minutes. Arterial blood gas analysis occurred at time points t=12, 18, 25, 35, 40, 45, and 50 minutes.

[2] = Stability as a function of pH 2-6 (1 mg/mL, 0.25 mg/mL at pH 6; 10 mM citric acid and glycine); format: physicochemical; design: growth in impurities / Assay: unit not given here; conditions: for Impurities: in %
Protocol: Buffer solutions containing ca. 10 mM each of citric acid and glycine in the pH range 2-6 were prepared by titrating 250 mL of a single stock containing both buffer agents with 1N NaOH/1N HCl and removing 50 mL aliquots at predetermined pH values. XXXVI solutions at 1 mg/mL were prepared in buffers of pH 2-5 by dissolving ˜25 mg of XXXVI in ˜23 mL of a given buffer, adjusting the pH to the target and making up the volume to 25.0 mL in a volumetric flask. (XXXVI) solution at pH 6 was prepared similarly, but at a lower drug concentration of 0.25 mg/mL using 6.68 mg of (XXXVI).
Each of the buffered XXXV solutions was filtered through a 0.2 μm polyether sulfone syringe filter into a volumetric flask, which had been previously rinsed with 70% ethanol and dried in a laminar flow hood. Following filtration, each buffered (XXXV) solution was split into 10 aliquots (9 aliquots of 2.5 mL each and 1 aliquot of 2 mL) in 5 mL serum vials previously rinsed with 70% ethanol and dried in a laminar flow hood. Filtration and preparation of aliquots were performed in a laminar flow hood. The 2 mL aliquot of each buffered (XXXV) solution was submitted for T0 analysis (HPLC assay and related substances).
Of the nine 2.5 mL aliquots, three aliquots were stored at each 40° C. and 60° C., two aliquots were stored at 25° C. and one aliquot was stored at −70° C. Samples stored at 40° C. and at 60° C. were evaluated for physical appearance, pH, assay and related substances after 1 week, 2 weeks and 4 weeks of storage. Samples at 25° C. and −70° C. served as controls to be analyzed if necessary.

## CCCNc1nc(NCCC)nc(N(C)OC)n1.O=S(=O)(O)O [XXXVI, N-(4,6-Bis-n-propylamino-[1,3,5]triazin-2-yl)-N,O-dimethyl-hydroxylamine hydrogen sulfate]
[1]; infusion 0.1, 0.3 and 1.0 mg/kg/min, vs vehicle
  arterial blood gases, reversal of opioid-induced respiratory depression: significantly reverses opioid-induced respiratory depression
[1]; infusion 0.03 mg/kg/min
  PaCO2 (% reversal): 18 % reversal
  PaO2 (% reversal): −2.0 % reversal
  SaO2 (% reversal): 42 % reversal
  pH (% reversal): 20 % reversal
[1]; infusion 0.1 mg/kg/min
  PaCO2 (% reversal): 47 % reversal
  PaO2 (% reversal): 16 % reversal
  SaO2 (% reversal): 51 % reversal
  pH (% reversal): 37 % reversal
[1]; infusion 0.3 mg/kg/min
  PaCO2 (% reversal): 72 % reversal
  PaO2 (% reversal): −16 % reversal
  SaO2 (% reversal): 43 % reversal
  pH (% reversal): 55 % reversal
[1]; infusion 1 mg/kg/min
  PaCO2 (% reversal): 94 % reversal
  PaO2 (% reversal): 26 % reversal
  SaO2 (% reversal): 62 % reversal
  pH (% reversal): 60 % reversal

## CCCNc1nc(NCCC)nc(N(C)OC)n1 [XXXV, N-(4,6-Bis-n-propylamino-[1,3,5]triazin-2-yl)-N,O-dimethyl-hydroxylamine]
[2]; all samples, up to 4 weeks at 40° C. and 60° C.
  physical appearance: remained clear, colorless and particle free
[2]; assay and impurities data
  stability at pH 2 compared to remaining pH values: significantly less stable at pH 2
[2]; pH 3-6, 40° C. and 60° C.
  growth in impurities: > 0.2
[2]; target pH 2, 40° C. 1 wk
  Assay: 0.997
  pH: 2.02
  Impurities: 0.58
[2]; target pH 2, 40° C. 2 wk
  Assay: 0.975
  pH: 1.98
  Impurities: 1.48
[2]; target pH 2, 40° C. 4 wk
  Assay: 0.970
  pH: 2.00
  Impurities: 2.49
[2]; target pH 2, 60° C. 1 wk
  Assay: 0.929
  pH: 2.00
  Impurities: 3.83
[2]; target pH 2, 60° C. 2 wk
  Assay: 0.754
  pH: 1.99
  Impurities: 9.89
[2]; target pH 2, 60° C. 4 wk
  Assay: 0.754
  pH: 2.01
  Impurities: 14.34
[2]; target pH 2, initial
  Assay: 1.02
  pH: 1.96
[2]; target pH 3, 40° C. 1 wk
  Assay: 0.984
  pH: 3.05
[2]; target pH 3, 40° C. 2 wk
  Assay: 0.987
  pH: 3.05
  Impurities: 0.19
[2]; target pH 3, 40° C. 4 wk
  Assay: 0.991
  pH: 3.06
  Impurities: 0.41
[2]; target pH 3, 60° C. 1 wk
  Assay: 0.971
  pH: 3.07
  Impurities: 0.71
[2]; target pH 3, 60° C. 2 wk
  Assay: 0.952
  pH: 3.03
  Impurities: 1.20
[2]; target pH 3, 60° C. 4 wk
  Assay: 0.952
  pH: 3.07
  Impurities: 2.19
[2]; target pH 3, initial
  Assay: 0.984
  pH: 3.02
[2]; target pH 4, 40° C. 1 wk
  Assay: 0.999
  pH: 3.94
[2]; target pH 4, 40° C. 2 wk
  Assay: 1.006
  pH: 3.96
  Impurities: 0.17
[2]; target pH 4, 40° C. 4 wk
  Assay: 1.012
  pH: 3.96
  Impurities: 0.22
[2]; target pH 4, 60° C. 1 wk
  Assay: 0.992
  pH: 3.94
[2]; target pH 4, 60° C. 2 wk
  Assay: 0.979
  pH: 3.96
  Impurities: 0.52
[2]; target pH 4, 60° C. 4 wk
  Assay: 0.979
  pH: 3.97
  Impurities: 1.02
[2]; target pH 4, initial
  Assay: 1.01
  pH: 4.00
[2]; target pH 5, 40° C. 1 wk
  Assay: 0.989
  pH: 4.90
[2]; target pH 5, 40° C. 2 wk
  Assay: 0.992
  pH: 4.95
  Impurities: 0.26
[2]; target pH 5, 40° C. 4 wk
  Assay: 0.977
  pH: 4.97
[2]; target pH 5, 60° C. 1 wk
  Assay: 0.977
  pH: 4.92
[2]; target pH 5, 60° C. 2 wk
  Assay: 0.947
  pH: 4.93
  Impurities: 0.62
[2]; target pH 5, 60° C. 4 wk
  Assay: 0.947
  pH: 4.98
  Impurities: 1.10
[2]; target pH 5, initial
  Assay: 1.01
  pH: 5.03
[2]; target pH 6, 40° C. 1 wk
  Assay: 0.257
  pH: 5.88
[2]; target pH 6, 40° C. 2 wk
  Assay: 0.253
  pH: 6.02
  Impurities: 0.25
[2]; target pH 6, 40° C. 4 wk
  Assay: 0.251
  pH: 5.98
  Impurities: 0.28
[2]; target pH 6, 60° C. 1 wk
  Assay: 0.247
  pH: 5.87
  Impurities: 0.56
[2]; target pH 6, 60° C. 2 wk
  Assay: 0.234
  pH: 6.03
  Impurities: 0.87
[2]; target pH 6, 60° C. 4 wk
  Assay: 0.234
  pH: 6.01
  Impurities: 1.65
[2]; target pH 6, initial
  Assay: 0.260
  pH: 6.05

— patent US9162992B2, “Compounds and compositions for treatment of breathing control disorders or diseases” (GALLEON PHARMACEUTICALS, INC., priority 2010, dated 2015)
